In patent US11884661B2, “3-substituted propionic acids as αV integrin inhibitors” (BRISTOL-MYERS SQUIBB COMPANY, priority 2016, dated 2024) one finds IC50 data, which are given here for 27 compounds.

The term IC50 denotes the concentration needed to halve the response being measured.

T1 sequence (P06756 31-992 limits assumed): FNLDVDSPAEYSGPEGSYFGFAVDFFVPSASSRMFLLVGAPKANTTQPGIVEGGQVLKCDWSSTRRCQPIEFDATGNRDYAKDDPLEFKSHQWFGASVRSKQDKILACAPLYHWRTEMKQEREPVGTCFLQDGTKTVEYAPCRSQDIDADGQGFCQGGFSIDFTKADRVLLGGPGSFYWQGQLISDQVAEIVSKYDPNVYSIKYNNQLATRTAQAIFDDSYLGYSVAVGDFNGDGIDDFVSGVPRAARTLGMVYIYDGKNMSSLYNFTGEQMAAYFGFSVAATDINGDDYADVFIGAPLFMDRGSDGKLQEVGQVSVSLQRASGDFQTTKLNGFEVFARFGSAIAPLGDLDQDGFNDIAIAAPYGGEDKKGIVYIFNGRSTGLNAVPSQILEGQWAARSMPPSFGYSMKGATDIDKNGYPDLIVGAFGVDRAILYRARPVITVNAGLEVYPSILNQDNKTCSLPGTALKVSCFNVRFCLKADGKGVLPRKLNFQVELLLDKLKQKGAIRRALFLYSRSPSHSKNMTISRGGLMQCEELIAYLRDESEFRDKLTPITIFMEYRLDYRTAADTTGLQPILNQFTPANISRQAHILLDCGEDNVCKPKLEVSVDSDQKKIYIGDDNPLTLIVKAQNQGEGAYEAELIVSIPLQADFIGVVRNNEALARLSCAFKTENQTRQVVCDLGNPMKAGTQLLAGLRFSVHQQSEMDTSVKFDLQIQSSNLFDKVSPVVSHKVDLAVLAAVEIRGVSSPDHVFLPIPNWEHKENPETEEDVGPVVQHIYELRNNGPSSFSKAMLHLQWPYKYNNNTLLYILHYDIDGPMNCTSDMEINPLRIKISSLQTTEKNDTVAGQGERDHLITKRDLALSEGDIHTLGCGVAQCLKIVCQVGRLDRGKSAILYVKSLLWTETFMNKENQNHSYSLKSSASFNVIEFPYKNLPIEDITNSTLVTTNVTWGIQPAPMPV
T1 sequence (P18564 22-707 limits assumed): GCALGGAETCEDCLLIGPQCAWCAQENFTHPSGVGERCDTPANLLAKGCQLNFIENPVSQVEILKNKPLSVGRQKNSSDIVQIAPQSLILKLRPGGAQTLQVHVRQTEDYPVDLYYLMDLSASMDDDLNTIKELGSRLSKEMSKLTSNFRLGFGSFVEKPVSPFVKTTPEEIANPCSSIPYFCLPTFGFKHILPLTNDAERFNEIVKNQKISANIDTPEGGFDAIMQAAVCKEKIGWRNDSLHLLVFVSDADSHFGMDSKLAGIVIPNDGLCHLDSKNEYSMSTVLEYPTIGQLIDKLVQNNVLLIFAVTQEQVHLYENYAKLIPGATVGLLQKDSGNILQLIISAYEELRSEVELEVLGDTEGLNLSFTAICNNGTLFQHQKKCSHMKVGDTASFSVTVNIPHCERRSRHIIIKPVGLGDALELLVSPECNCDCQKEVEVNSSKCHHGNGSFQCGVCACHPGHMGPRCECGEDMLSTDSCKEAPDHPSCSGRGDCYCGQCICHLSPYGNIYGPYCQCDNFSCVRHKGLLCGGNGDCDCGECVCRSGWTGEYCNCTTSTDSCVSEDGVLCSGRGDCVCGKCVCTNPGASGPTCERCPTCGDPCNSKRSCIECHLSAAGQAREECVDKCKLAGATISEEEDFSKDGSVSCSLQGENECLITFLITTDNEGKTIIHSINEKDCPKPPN

The experiment concerns the target T1, human αVβ6 (Homo sapiens, UniProt P06756+P18564).
T1 construct: purchased R & D systems 3817-AV
In words: human αVβ6 HTRF binding assay. To be noted: recombinant human αVβ6 integrin, FITC-conjugated fibronectin. How it is done:
All binding assays used the HTRF (homogeneous time resolved fluorescence) technology from Cisbio International, therefore all assays are described as HTRF binding assays. The assay results for the Examples are listed above together with the characterization data. The HTRF binding assays are established for the following integrins: human αVβ6, human αVβ1, human αVβ3, human αVβ5, and human αVβ8. All assays used the following assay buffer: 20 mM Tris, pH 7.4, 1 mM MgCl2, 1 mM MnCl2, 0.01% Tween 20, and 0.01% BSA. Alternatively, a SPA-based assay was used for evaluation of receptor binding.
The following describes the components and a representative procedure for the human αVβ6 HTRF binding assay: Recombinant human αVβ6 Integrin (R & D systems, 3817-AV) was biotinylated. Biotinylated human αVβ6 Integrin was added to assay vessel at a final concentration of 1.25 nM. FITC-conjugated fibronectin (Cytoskeleton, FNR02) was then added at the final concentration of 5 nM. The mixture was centrifuged at 600 rpm for three minutes using Thermo Fisher Heraeus Multifuge X3 centrifuge and then incubated at RT for an hour. Streptavidin Terbium (Cisbio international 610STLB) was then added at the final concentration of 0.625 nM. The resulting mixture was centrifuged at 600 rpm for three minutes using Thermo Fisher Heraeus Multifuge X3 centrifuge and then incubated at room temperature overnight in dark before reading HTRF signals.
In general terms: TR-FRET usually uses a lanthanide donor and a delayed reading to cut background.
In the case of `COc1ccc(C(CC(=O)O)c2ncc(CCCCc3ccc4c(n3)NCCC4)s2)cc1F` (single isomer, unassigned) [Example 41, (3-Fluoro-4-methoxyphenyl)-3-(5-(4-(5,6,7,8-tetrahydro-1,8-naphthyridin-2-yl)butyl)thiazol-2-yl)propanoic acid], the IC50 amounted to 0.0059 µM. Consider `COc1ccc(C(CC(=O)O)n2ncc(CCCc3ccc4c(n3)NCCC4)n2)cn1` (single isomer, unassigned) [Example 170, 3-(6-methoxypyridin-3-yl)-3-(4-(3-(5,6,7,8-tetrahydro-1,8-naphthyridin-2-yl)propyl)-2H-1,2,3-triazol-2-yl)propanoic acid], for which the IC50 was 0.62 µM. With `O=C(O)CC(c1cnc2c(c1)OCCO2)n1ccc(CCCc2ccc3c(n2)NCCC3)n1` (racemic) [Example 35, (±)-3-(2,3-Dihydro-[1,4]dioxino[2,3-b]pyridin-7-yl)-3-(3-(3-(5,6,7,8-tetrahydro-1,8-naphthyridin-2-yl)propyl)-1H-pyrazol-1-yl)propanoic acid], the IC50 is 0.017 µM. Regarding `COc1ccc([C@H](CC(=O)O)c2cnn(CCCc3ccc4c(n3)NCCC4)c2)cn1` [Example 8, (A)-3-(6-Methoxypyridin-3-yl)-3-(1-(3-(5,6,7,8-tetrahydro-1,8-naphthyridin-2-yl)propyl)-1H-pyrazol-4-yl)propanoic acid], the IC50 came to 0.064 µM. Turning to `CN(C)c1ccc(C(CC(=O)O)c2nc(CCCCc3ccc4c(n3)NCCC4)cs2)cn1` (single isomer, unassigned) [Example 122, 3-(6-(dimethylamino)pyridin-3-yl)-3-(4-(4-(5,6,7,8-tetrahydro-1,8-naphthyridin-2-yl)butyl)thiazol-2-yl)propanoic acid], the IC50 stood at 0.0035 µM. The same measure for `COc1ncc(C(CC(=O)O)c2nc(CCCc3ccc4c(n3)NCCC4)cs2)cn1` (single isomer, unassigned) [Example 146, 3-(2-methoxypyrimidin-5-yl)-3-(4-(3-(5,6,7,8-tetrahydro-1,8-naphthyridin-2-yl)propyl)thiazol-2-yl)propanoic acid]: 0.14 µM; for `COc1ncc(C(CC(=O)O)n2ccc(CCCc3ccc4c(n3)NCCC4)n2)cn1` (racemic) [Example 34, (±)-3-(2-Methoxypyrimidin-5-yl)-3-(3-(3-(5,6,7,8-tetrahydro-1,8-naphthyridin-2-yl)propyl)-1H-pyrazol-1-yl)propanoic acid]: 0.01 µM; for `O=C(O)C[C@@H](c1ccc(OCC2CC2)nc1)n1ccc(CCCc2ccc3c(n2)NCCC3)n1` [Example 112, (S)-3-(6-(cyclopropylmethoxy)pyridin-3-yl)-3-(3-(3-(5,6,7,8-tetrahydro-1,8-naphthyridin-2-yl)propyl)-1H-pyrazol-1-yl)propanoic acid]: 0.0035 µM. The result for `CCOc1ncc([C@H](CC(=O)O)n2ccc(CCCc3ccc4c(n3)NCCC4)n2)cn1` [Example 56, (S)-3-(2-Ethoxypyrimidin-5-yl)-3-(3-(3-(5,6,7,8-tetrahydro-1,8-naphthyridin-2-yl)propyl)-1H-pyrazol-1-yl)propanoic acid] reads 0.0071 µM. As for `O=C(O)CCCNc1cc(C(CC(=O)O)n2nccc2CCCc2ccc3c(n2)NCCC3)ccn1` (racemic) [Example 79, (±)-4-{[4-(2-carboxy-1-{5-[3-(5,6,7,8-tetrahydro-1,8-naphthyridin-2-yl)propyl]-1H-pyrazol-1-yl}ethyl)pyridin-2-yl]amino}butanoic acid], the IC50 was determined as 0.3 µM. Consider `COc1ccc(C(CC(=O)O)n2ncc(CCCc3ccc4c(n3)NCCC4)n2)cc1F` (single isomer, unassigned) [Example 173, 3-(3-fluoro-4-methoxyphenyl)-3-(4-(3-(5,6,7,8-tetrahydro-1,8-naphthyridin-2-yl)propyl)-2H-1,2,3-triazol-2-yl)propanoic acid], for which the IC50 came to 0.003 µM.

Regarding `COc1cc(C(CC(=O)O)n2nccc2CCCc2ccc3c(n2)NCCC3)ccn1` (racemic) [Example 73, (±)-3-(2-methoxypyridin-4-yl)-3-{5-[3-(5,6,7,8-tetrahydro-1,8-naphthyridin-2-yl)propyl]-1H-pyrazol-1-yl}propanoic acid], the IC50 was 0.025 µM. As to `COc1ccc(C(CC(=O)O)c2ccn(CCCc3ccc4c(n3)NCCC4)n2)cn1` (stereo not drawn) [Example 113, 3-(6-methoxypyridin-3-yl)-3-(1-(3-(5,6,7,8-tetrahydro-1,8-naphthyridin-2-yl)propyl)-1H-pyrazol-3-yl)propanoic acid], the concentration for half-maximal inhibition (IC50) was found to be 0.035 µM. With `COc1ccc(C(CC(=O)O)c2ncc(CCCc3ccc4c(n3)NCCC4)s2)cn1` (single isomer, unassigned) [Example 19, 3-(6-Methoxypyridin-3-yl)-3-(5-(3-(5,6,7,8-tetrahydro-1,8-naphthyridin-2-yl)propyl)thiazol-2-yl)propanoic acid], the IC50 was 0.044 µM. For the compound `O=C(O)CC(c1ccc2nccnc2c1)c1nc(CCCCc2ccc3c(n2)NCCC3)cs1` (single isomer, unassigned) [Example 119, 3-(quinoxalin-6-yl)-3-(4-(4-(5,6,7,8-tetrahydro-1,8-naphthyridin-2-yl)butyl)thiazol-2-yl)propanoic acid], the IC50 worked out at 0.099 µM. `COc1ncc(C(CC(=O)O)n2ccc(CCCc3ccc4c(n3)NCCCC4)n2)cn1` (single isomer, unassigned) [Example 105]: the IC50 is 0.47 µM. The same measure for `COc1ccc(C(CC(=O)O)c2ncc(CCCCc3ccc4c(n3)NCCC4)s2)cn1` (single isomer, unassigned) [Example 18, 3-(6-Methoxypyridin-3-yl)-3-(5-(4-(5,6,7,8-tetrahydro-1,8-naphthyridin-2-yl)butyl)thiazol-2-yl)propanoic acid]: 0.0067 µM; for `O=C(O)CC(c1cncnc1)n1ccc(CCCc2ccc3c(n2)NCCC3)n1` (stereo not drawn) [Example 84, 3-(pyrimidin-5-yl)-3-(3-(3-(5,6,7,8-tetrahydro-1,8-naphthyridin-2-yl)propyl)-1H-pyrazol-1-yl)propanoic acid]: 0.11 µM; for `COc1ncc([C@H](CC(=O)O)n2ccc(CCC[C@H]3CCc4cccnc4N3)n2)cn1` [Example 89, (S)-3-(2-methoxypyrimidin-5-yl)-3-(3-(3-((S)-1,2,3,4-tetrahydro-1,8-naphthyridin-2-yl)propyl)-1H-pyrazol-1-yl)propanoic acid]: 0.1 µM. With `CN(C)C(=O)c1cccc(C(CC(=O)O)c2nc(CCCCc3ccc4c(n3)NCCC4)cs2)c1` (single isomer, unassigned) [Example 117, 3-(3-(dimethylcarbamoyl)phenyl)-3-(4-(4-(5,6,7,8-tetrahydro-1,8-naphthyridin-2-yl)butyl)thiazol-2-yl)propanoic acid], the 50% inhibitory concentration (IC50) was determined as 0.076 µM.

Consider `COc1ncc(C(CC(=O)O)n2ccc(CCCc3ccc4c(n3)NCCCC4)n2)cn1` (racemic) [Example 103, (±)-3-(2-methoxypyrimidm-5-yl)-3-(3-(3-(6,7,8,9-tetrahydro-5H-pyrido| 2,3-6 |azepin-2-yl)propyl)-1H-pyrazol-1-yl)propanoic acid], for which the IC50 amounted to 0.03 µM. As for `COc1ncc([C@@H](CC(=O)O)n2ccc(CCCc3ccc4c(n3)NCCC4)n2)cn1` [Example 83, (R)-3-(2-methoxypyrimidin-5-yl)-3-(3-(3-(5,6,7,8-tetrahydro-1,8-naphthyridin-2-yl)propyl)-1H-pyrazol-1-yl)propanoic acid], the IC50 came out at 0.31 µM. The result for `O=C(O)C[C@@H](c1ccc(=O)n(Cc2ccccc2)c1)n1ccc(CCCc2ccc3c(n2)NCCC3)n1` [Example 109, (S)-3-(1-benzyl-6-oxo-1,6-dihydropyridin-3-yl)-3-(3-(3-(5,6,7,8-tetrahydro-1,8-naphthyridin-2-yl)propyl)-1H-pyrazol-1-yl)propanoic acid] reads 0.0042 µM.

`COc1ccc(C(CC(=O)O)n2ccc(CCCc3ccc4c(n3)NCCCC4)n2)cn1` (single isomer, unassigned) [Example 102, 3-(6-methoxypyridin-3-yl)-3-(3-(3-(6,7,8,9-tetrahydro-5H-pyrido[2,3-b]azepin-2-yl)propyl)-1H-pyrazol-1-yl)propanoic acid]: the IC50 was determined as 0.15 µM. As for `COc1ccc(C(CC(=O)O)c2nc(CCCC3CCc4cccnc4N3)cs2)cn1` (single isomer, unassigned) [Example 157, 3-(6-methoxypyridin-3-yl)-3-(4-(3-(1,2,3,4-tetrahydro-1,8-naphthyridin-2-yl)propyl)thiazol-2-yl)propanoic acid], the IC50 was determined as 0.027 µM. For `COc1ncc(C(CC(=O)O)n2nccc2CCCc2ccc3c(n2)NCCCC3)cn1` (racemic) [Example 106, (±)-3-(2-methoxypyrimidin-5-yl)-3-(5-(3-(6,7,8,9-tetrahydro-5H-pyrido[2,3-b]azepin-2-yl)propyl)-1H-pyrazol-1-yl)propanoic acid], the half-inhibitory concentration (IC50) came out at 0.82 µM.

With `Cc1ncc(C(CC(=O)O)c2nc(CCCc3ccc4c(n3)NCCC4)cs2)cn1` (single isomer, unassigned) [Example 147, 3-(2-methylpyrimidin-5-yl)-3-(4-(3-(5,6,7,8-tetrahydro-1,8-naphthyridin-2-yl)propyl)thiazol-2-yl)propanoic acid], the IC50 was found to be 0.0019 µM.
